Measured values published in patent US11472781B2, “2-aminoaryl-5-aryloxazole analogs for the treatment of neurodegenerative diseases” (Southern Research Institute, priority 2018, dated 2022).
pEC50: −log10 of the molar value. Like-named read-outs stand apart in the source and are kept apart here.

What was measured:
In vivo PK (I.V./P.O.) = assay: In vivo PK (I.V./P.O.); design: species or system mice; conditions: I.V./P.O., 1 and 5 mg/kg, respectively; for half-life: male, CD1, mouse, plasma, read-out: plasma half-life (t1/2)
Method: Before the studies above were initiated, congenic SOD1 G93A mice were dosed with 50 mg/kg of compound no. 1 and compound no. 2 via I.P. injection to rule out any toxicity issues prior to initiating the efficacy study (FIG. 4A-C).
The experiments will involve the administration of compounds to 5-6 week old CD1 male mice. Mice are dosed by either a 1 mg/kg IV bolus or 5 mg/kg oral gavage. Blood samples are collected by cardiac puncture at 0, 0.25, 0.5, 1, 2, 4, 6, 8, 12, and 24 hrs. There will be three mice per time point. Plasma concentration over time will be determined by LC/MS from which the standard PK parameters of clearance, volume of distribution, t1/2 and % F can be derived using WinNoLin software (Pharsight Inc.). This will require a total of 60 mice per compound. Plasma will be analyzed by reverse phase chromatography with MS/MS detection operating in the positive ion mode using multiple reaction monitoring using an internal standard and Applied Biosystems Analyst 1.4 software. Peak time (when maximum plasma drug concentration occurs), peak drug level [approximate maximum concentrations of drug in plasma (Cmax)] and t1/2 for drug elimination will be estimated for each tested compound. Bioavailability (F) will be calculated from the ratio of AUCPO/AUCIV and expressed as a percentage. To determine levels in brain, six additional mice will be dosed with 1 mg/kg I.V. and sacrificed at 0.25 and 1 hr. Brain and spinal cord samples will be collected at these two time points, quick frozen in an ice box and kept at −75±15° C. All samples will be weighed and homogenized with phosphate buffered saline (PBS) by brain weight (g) to PBS volume (mL) ratio 1:3 before analysis. The actual concentration is the detected value multiplied by the dilution factor.

SOD2 [1] = assay: Quantitative RT-PCR for SOD2 mRNA in SH-SY5Y neuroblastoma cells; format: cell-based, human; conditions: 1 μM, 6 h
Method: Referring to FIG. 1A and FIG. 1B, SH-SY5Y neuroblastoma cells were treated with vehicle or compounds (1 μM) for 6 or 24 hours, and cells were collected for RNA isolation (Trizol method). Quantitative RT-PCR for Manganese superoxide dismutase (SOD2; FIG. 1A) or brain-derived neurotrophic factor (BDNF, exon 1; FIG. 1B) indicates short-term upregulation of SOD2 and BDNF and sustained upregulation of BDNF (n=3-4/group, one-way ANOVA followed by unpaired t-test; […]).
Referring to FIG. 6, treatment of SH-SY5Y neuroblastoma cells with compounds (1 μM, 6 h) induced SOD2 mRNA expression >2 fold, as detected by q-RT-PCR. N=4/group, mean+/−SEM, 2-way ANOVA, post-hoc t-test. *p<0.05).

NF-κB = assay: High throughput assay for NF-κB reporter activity (luciferase) in stably transfected SH-SY5Y cells; format: cell-based, human; conditions: for maximal fold induction / pEC50: Homo sapiens; for maximal fold induction: 24 h, read-out: Emax; for pEC50 / EC50: 24 hr; for pEC50: read-out: EC50
Method: SH-SY5Y human neuroblastoma cell line was obtained from the American Tissue Culture collection (ATCC). A commercially available expression vector containing the NF-kB promoter enhancer region driving the firefly luciferase gene expression and a second plasmid containing the gene conferring resistance to blasticidin were used in a dual transfection approach to obtain a stable cell line. […] Luciferase activity was measured as a reporter of NF-kB activation using the Bright-Glo Luciferase assay kit (Cat. No. E2620, Promega, Madison, Wis.) according to the manufacturer's instructions. Cell viability was measured using the CellTiter-Glo Luminescent Cell Viability assay kit (Cat. No. G7572, Promega, Madison, Wis.) according to the manufacturer's instructions. Briefly, cells were equilibrated at room temperature for 30 min prior to the addition of Bright-Glo to the white opaque plates or CellTiter-Glo to the black clear bottom plates. A volume of assay buffer equal to the volume of cell media was added to each well and incubated for five min to allow complete cell lysis. All procedures were performed in the dark.

[2] = Plasma and brain levels after I.P. dosing of SOD1 G93A mice; format: in vivo; conditions: 50 mg/kg I.P., within 30 minutes
[3] = system: SOD1 G93A transgenic mouse; assay: Efficacy in the SOD1 G93A transgenic mouse model of ALS; format: in vivo; conditions: 25 mg/kg I.P. daily from day 96
Method: Briefly, Congenic SOD1-G93A mice were doced with up to 50 mg/kg of both compounds (IP) to evaluate any toxicity issues prior to initiating the efficacy study. Also, mice administered 20 mg of each compound had high plasma and brain levels at 30 minutes. Next, individually genotyped SOD1-G93A mice (Prize4life-Jackson Labs) were treated with each compound (25 mg/kg, IP) at disease onset (day 96). The treatment extended survival, reduced weight loss and improved the neurologic symptoms. […] The average weight within the groups before the treatment was similar.
While compounds which increase SOD2 expression and activity have potential utility in a number of neurodegenerative diseases involving ROS overproduction, it was decided to test these two compounds in a mouse model of ALS for a variety of reasons, including the evidence for oxidative stress in ALS (described above), the ability of these compounds to induce SOD2 in a motor neuron-like mouse cell line (NSC-34; FIG. 3B), and the availability of a mouse model with dysfunction in SOD1 (human SOD1 G93A transgenic mouse; Jackson Laboratory). The pilot experiment involved treating six wildtype and six SOD1 G93A transgenic males on the C57BL/6 background with 25 mg/kg compound no. 1 and compound no. 2 I.P. daily, beginning around disease onset (day 96; FIG. 4A and FIG. 4B). Mouse survival and behavioral phenotype were observed based on guidelines from “Working with ALS mice: JAX handbook,” using a 4-point severity score (FIG. 4C).
Referring to FIG. 4A and FIG. 4B, SOD1 G93A mice received daily IP injections of saline (control) or compounds (25 mg/kg) starting on day 96.
Referring. To FIG. 4C, progression from neurological score 1 was delayed only by compound no. 2 (2 day delay, +30%), progression to higher (worse) scores was delayed by both compounds. *P<0.05; **P<0.01, 2-way ANOVA.

SOD2 [4] = assay: SOD2 protein expression and SOD activity in primary rat cortical cultures; format: cell-based
Source text: N=3-6/group, mean+/−SEM, *p<0.05, **p<0.01, 2-way ANOVA, post-hoc t-test.

SOD2 [5] = assay: Quantitative RT-PCR for SOD2 mRNA in NSC-34 neuroblastoma cells; format: cell-based, mouse; conditions: NSC-34, 1 μM, 24 h

EC50 (NF-κB) | Compound | maximal fold induction (NF-κB) | other results
Inactive | O=C(O)c1ccc(-c2cnc(Nc3ccc(F)cc3)o2)cc1 [Compound 51] | 4.22 | –
Inactive | O=C(O)c1ccc(-c2cnc(Nc3c(F)cccc3F)o2)cc1 [Compound 53] | – | –
Inactive | O=C(O)c1ccccc1-c1cnc(Nc2ccccc2F)o1 [Compound 54] | 5.37 | –
Inactive | O=C(O)c1ccccc1-c1cnc(Nc2cc(F)ccc2F)o1 [Compound 55] | 4.46 | –
Inactive | COC(=O)c1ccc(-c2cnc(Nc3cccc(F)c3F)o2)cc1 [Compound 71] | 7.24 | –
Inactive | COC(=O)c1ccccc1-c1cnc(Nc2ccc(F)cc2F)o1 [Compound 76] | 4.45 | –
Inactive | COC(=O)c1ccccc1-c1cnc(Nc2cc(F)ccc2F)o1 [Compound 77] | 2.29 | –
Inactive | COC(=O)c1cccc(-c2cnc(Nc3ccc(Cl)cc3)o2)c1 [Compound 85] | 5.77 | –
Inactive | COC(=O)c1cccc(-c2cnc(N(c3ccc(F)cc3)C(C)C)o2)c1 [Compound 86] | 2.2 | –
Inactive | COC(=O)c1cccc(-c2cnc(Nc3ccc(C(F)(F)F)cc3)o2)c1 [Compound 87] | 5.29 | –
Inactive | COC(=O)c1cccc(-c2cnc(Nc3ccc(C#N)cc3)o2)c1 [Compound 88] | 3.49 | –
Inactive | CCCN(c1ccc(F)cc1)c1ncc(-c2cccc(C(=O)OC)c2)o1 [Compound 89] | 3 | –
Inactive | Fc1ccc(Nc2ncc(-c3cccc(-c4nnn[nH]4)c3)o2)cc1 [Compound 93] | 2.59 | –
Inactive | NCc1cccc(-c2cnc(Nc3ccccc3F)o2)c1 [Compound 96] | 5.14 | –

The remaining lines, values behind:

Compound | EC50 (NF-κB) | maximal fold induction (NF-κB) | other results
O=C(/C=C\Nc1ccccc1Br)c1ccc2c(c1)OCO2 [Compound 1, (Z)-1-(Benzo[d][1,3]dioxol-5-yl)-3-((2-bromophenyl)amino)prop-2-en-1-one] | – | 26 | oral bioavailability (In vivo PK (I.V./P.O.)): lack of oral bioavailability; half-life (In vivo PK (I.V./P.O.)): < 5 min; SOD2 mRNA expression (SOD2 [1]; q-RT-PCR): ~2 fold; SOD2 mRNA expression (SOD2 [1]; SH-SY5Y): induce SOD2; pEC50 (NF-κB): 6.30; plasma and brain levels [2]: substantial plasma and brain levels; progression to higher (worse) neurological scores / score of 4 [3]: delayed; survival [3]: significantly prolonged; SOD2 protein expression (SOD2 [4]): induce SOD2; SOD activity (SOD2 [4]): increase; SOD2 mRNA expression (SOD2 [5]): induce SOD2
Cc1cccnc1Nc1nc(-c2ccccn2)cs1 [Compound 2] | – | 40 | oral bioavailability (In vivo PK (I.V./P.O.)): lack of oral bioavailability; half-life (In vivo PK (I.V./P.O.)): < 5 min; SOD2 mRNA expression (SOD2 [1]; q-RT-PCR): ~2 fold; SOD2 mRNA expression (SOD2 [1]; SH-SY5Y): induce SOD2; pEC50 (NF-κB): 6.68; plasma and brain levels [2]: substantial plasma and brain levels; progression to higher (worse) neurological scores / score of 4 [3]: delayed; survival [3]: significantly prolonged; SOD2 protein expression (SOD2 [4]): induce SOD2; SOD activity (SOD2 [4]): increase; SOD2 mRNA expression (SOD2 [5]): induce SOD2
O=C(O)c1cccc(-c2cnc(Nc3c(F)cc(F)cc3F)o2)c1 [Compound 48] | – | 14.1 | pEC50 (NF-κB): < 5.00
O=C(O)c1ccc(-c2cnc(Nc3cccc(F)c3)o2)cc1 [Compound 50] | Inactive | 6.15 | –
COC(=O)c1cccc(-c2cnc(Nc3c(F)cc(F)cc3F)o2)c1 [Compound 64] | – | 12.3 | pEC50 (NF-κB): < 5.00
COC(=O)c1ccc(-c2cnc(Nc3ccc(F)cc3)o2)cc1 [Compound 67] | Inactive | – | –
COC(=O)c1ccc(-c2cnc(Nc3ccc(F)cc3F)o2)cc1 [Compound 68] | – | 4.41 | pEC50 (NF-κB): < 5.00
COC(=O)c1ccc(-c2cnc(Nc3c(F)cc(F)cc3F)o2)cc1 [Compound 72] | Inactive | 3.97 | –
COC(=O)c1ccccc1-c1cnc(Nc2ccccc2F)o1 [Compound 73] | Inactive | 2.37 | –
COC(=O)c1ccccc1-c1cnc(Nc2cccc(F)c2)o1 [Compound 74] | Inactive | 2.37 | –
COC(=O)c1ccccc1-c1cnc(Nc2ccc(F)cc2)o1 [Compound 75] | Inactive | 2.97 | –
COC(=O)c1ccccc1-c1cnc(Nc2c(F)cccc2F)o1 [Compound 78] | Inactive | 4.36 | –
Fc1ccccc1Nc1nc(-c2ccccn2)no1 [Compound 81, N-(2-fluorophenyl)-3-(pyridin-2-yl)-1,2,4-oxadiazol-5-amine] | – | 14.4 | pEC50 (NF-κB): 5.60
CC(C)N(c1ccc(F)cc1)c1ncc(-c2cccc(C(=O)O)c2)o1 [Compound 83] | Inactive | 4.5 | –
O=C(O)c1cccc(-c2cnc(Nc3ccc(Cl)cc3)o2)c1 [Compound 84] | – | 11.3 | pEC50 (NF-κB): 6.12
COC(=O)c1cccc(-c2cnc(Nc3ccc(OC)cc3)o2)c1 [Compound 90] | Inactive | 2.47 | –
Nc1cccc(-c2cnc(Nc3ccccc3F)o2)c1 [Compound 97] | Inactive | 0.55 | –
Cc1noc(-c2cccc(-c3cnc(N(C)c4ccc(F)cc4)o3)c2)n1 [Compound 98] | Inactive | 3.2 | –
